This is an account of results in patent US9855268B2, “Triazolo[4,5-d]pyrimidine derivatives” (Merck Patent GmbH, priority 2013, dated 2018).

This assay addresses GCN2 (Homo sapiens, UniProt Q9P2K8). Description: GCN2 enzyme assay (TR-FRET Lanthascreen, GFP-eIF2alpha phosphorylation). Format: biochemical. The settings on record: 10 μM ATP, 80 nM GFP-eIF2a, 30 nM GCN2. The text has this: GCN2: Assay Principle & Conditions
This assay can quantificate the activity of the serin kinase GCN2 (general control non-derepressible-2).
This kinase is involved in the stress metabolism of cells. It is activated upon starvation (amino acid depletion). Its natural substrate is eIF2a (eukaryotic initiation factor 2 alpha subunit), a translation factor, which gets activated (phosphorylated) by GCN2 in case of an amino acid bottleneck in the cells. This in turn leads to a halt of the protein synthesis. Inhibition of GCN2 results in stopping this mechanism: The cell can not stop protein production upon “starvation” stress.
The assay is run in two steps: the enzymatic reaction and the detection step. In the first step GCN2 is incubated with 10 μM ATP and 80 nM of the GFP-labelled substrate eIF2alpha at room temperature.
The enzymatic reaction is stopped by addition of EDTA. The amount of phosphorylated eIF2alpha is determined by TR-FRET (Lanthascreen): A complex is formed consisting of antibody and GFP labelled phospho-eIF2a, which allows a FRET upon exitation at 340 nm.
Final Concentrations in the Enzymatic Reaction

Sequence of GCN2 (Q9P2K8 whole entry, species assumed): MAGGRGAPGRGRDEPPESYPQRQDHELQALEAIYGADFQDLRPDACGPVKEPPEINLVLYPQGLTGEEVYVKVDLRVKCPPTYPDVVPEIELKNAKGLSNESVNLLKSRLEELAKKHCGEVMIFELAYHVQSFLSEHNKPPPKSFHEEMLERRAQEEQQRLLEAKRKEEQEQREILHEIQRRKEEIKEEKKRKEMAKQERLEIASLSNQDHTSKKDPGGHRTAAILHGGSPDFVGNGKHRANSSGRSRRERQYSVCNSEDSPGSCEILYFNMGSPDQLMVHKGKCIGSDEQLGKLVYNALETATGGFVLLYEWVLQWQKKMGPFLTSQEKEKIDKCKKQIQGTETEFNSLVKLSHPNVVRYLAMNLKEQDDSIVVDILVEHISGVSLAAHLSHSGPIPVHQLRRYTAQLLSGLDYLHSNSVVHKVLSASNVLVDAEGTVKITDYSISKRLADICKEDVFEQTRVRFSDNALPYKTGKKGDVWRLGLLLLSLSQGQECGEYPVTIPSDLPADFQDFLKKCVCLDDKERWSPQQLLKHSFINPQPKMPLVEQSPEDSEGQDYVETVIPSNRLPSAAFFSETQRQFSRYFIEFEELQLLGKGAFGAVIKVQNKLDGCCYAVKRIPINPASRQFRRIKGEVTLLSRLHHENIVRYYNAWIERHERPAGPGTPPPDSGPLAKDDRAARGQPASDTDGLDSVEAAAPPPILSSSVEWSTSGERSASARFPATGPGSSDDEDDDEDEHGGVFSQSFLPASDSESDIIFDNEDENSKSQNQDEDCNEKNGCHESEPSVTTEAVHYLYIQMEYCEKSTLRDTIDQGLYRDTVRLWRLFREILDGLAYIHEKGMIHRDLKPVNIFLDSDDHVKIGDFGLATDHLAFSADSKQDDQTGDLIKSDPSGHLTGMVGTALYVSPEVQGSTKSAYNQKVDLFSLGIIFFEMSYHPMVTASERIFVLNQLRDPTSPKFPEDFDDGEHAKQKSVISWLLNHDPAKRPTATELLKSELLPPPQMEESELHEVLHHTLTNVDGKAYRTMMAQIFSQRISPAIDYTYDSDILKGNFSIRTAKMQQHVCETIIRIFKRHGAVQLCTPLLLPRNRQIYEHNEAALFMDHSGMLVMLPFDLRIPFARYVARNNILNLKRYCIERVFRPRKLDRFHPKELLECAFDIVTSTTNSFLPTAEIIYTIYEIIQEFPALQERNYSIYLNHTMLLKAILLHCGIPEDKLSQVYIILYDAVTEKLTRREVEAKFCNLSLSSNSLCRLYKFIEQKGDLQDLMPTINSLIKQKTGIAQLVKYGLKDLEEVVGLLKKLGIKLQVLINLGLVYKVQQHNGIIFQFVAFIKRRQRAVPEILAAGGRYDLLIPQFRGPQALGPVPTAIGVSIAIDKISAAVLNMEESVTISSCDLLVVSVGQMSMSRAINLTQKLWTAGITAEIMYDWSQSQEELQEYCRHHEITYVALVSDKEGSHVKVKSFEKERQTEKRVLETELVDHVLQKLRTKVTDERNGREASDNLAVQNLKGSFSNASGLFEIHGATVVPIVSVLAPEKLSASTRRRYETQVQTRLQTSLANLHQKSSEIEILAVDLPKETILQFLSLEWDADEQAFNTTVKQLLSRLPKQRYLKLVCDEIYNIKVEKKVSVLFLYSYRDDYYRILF

A word on the IC50: it is the concentration at which inhibition is half-maximal. A low value points to greater potency in that assay. As to `COc1ccc(-n2nnc3cnc(N[C@H]4CC[C@@H](O)C4)nc32)cc1` (relative stereo) [A27, cis-3-[3-(4-methoxy-phenyl)-3H-[1,2,3]triazolo[4,5-d]pyrimidin-5-ylamino]-cyclopentanol], the 50% inhibitory concentration (IC50) was in the range of 1000 to 5000 nM.
The result for `COc1ccc(-n2nnc3cnc(N[C@H]4CCN(C(=O)OC(C)(C)C)C4)nc32)cc1` [A66, (S)-3-[3-(4-methoxy-phenyl)-3H-[1,2,3]triazolo[4,5-d]pyrimidin-5-ylamino]-pyrrolidine-1-carboxylic acid tert-butyl ester] reads 5000 to 10000 nM; that for `COc1ccc(-n2nnc3cnc(N[C@@H]4CC[C@H](CNC(=O)OC(C)(C)C)C4)nc32)cc1` (relative stereo) [A117, {(cis)-3-[3-(4-methoxy-phenyl)-3H-[1,2,3]triazolo[4,5-d]pyrimidin-5-ylamino]-cyclopentylmethyl}-carbamic acid tert-butyl ester], < 1000 nM.
Take `COc1ccc(-n2nnc3cnc(N[C@H]4CC[C@@H](N(C)C)C4)nc32)cc1` (relative stereo) [A108, (cis)-N-[3-(4-methoxy-phenyl)-3H-[1,2,3]triazolo[4,5-d]pyrimidin-5-yl]-N′,N′-dimethyl-cyclopentane-1,3-diamine]: the IC50 was < 1000 nM.
The result for `COc1ccc(-n2nnc3cnc(N[C@@H]4CCN(C(=O)OC(C)(C)C)C4)nc32)cc1` [A65, (R)-3-[3-(4-methoxy-phenyl)-3H-[1,2,3]triazolo[4,5-d]pyrimidin-5-ylamino]-pyrrolidine-1-carboxylic acid tert-butyl ester] reads 1000 to 5000 nM; that for `COc1ccc(-n2nnc3cnc(NC4CCC4)nc32)cc1` [A21, cyclobutyl-[3-(4-methoxy-phenyl)-3H-[1,2,3]triazolo[4,5-d]pyrimidin-5-yl]-amine], < 1000 nM; that for `COc1ccc(-n2nnc3cnc(NC4CCc5[nH]ncc5C4)nc32)cc1` (stereo not shown) [A23, [3-(4-methoxy-phenyl)-3H-[1,2,3]triazolo[4,5-d]pyrimidin-5-yl]-(4,5,6,7-tetrahydro-1H-indazol-5-yl)-amine], < 1000 nM.
`CCOc1ccc(-n2nnc3cnc(NCCc4cnn(C)c4)nc32)cc1` [B7, [3-(4-ethoxy-phenyl)-3H-[1,2,3]triazolo[4,5-d]pyrimidin-5-yl]-[2-(1-methyl-1H-pyrazol-4-yl)-ethyl]-amine]: the half-maximal inhibitory concentration (IC50) was < 1000 nM.
As for `N[C@H]1CC[C@H](Nc2ncc3nnn(-c4ccc(F)cc4)c3n2)CC1` [A75, N-[3-(4-fluoro-phenyl)-3H-[1,2,3]triazolo[4,5-d]pyrimidin-5-yl]-(trans)-cyclohexane-1,4-diamine], the figure is < 1000 nM; as for `Cc1ccc2cc(-n3nnc4cnc(N[C@@H]5CCN(C(N)=O)C5)nc43)ccc2n1` [A284, (R)-3-[3-(2-methyl-quinolin-6-yl)-3H-[1,2,3]triazolo[4,5-d]pyrimidin-5-ylamino]-pyrrolidine-1-carboxylic acid amide], < 1000 nM; as for `CCOc1ccc(-n2nnc3cnc(NCCc4cn[nH]c4)nc32)cc1` [B9, [3-(4-ethoxy-phenyl)-3H-[1,2,3]triazolo[4,5-d]pyrimidin-5-yl]-[2-(1H-pyrazol-4-yl)-ethyl]-amine], < 1000 nM.
The result for `O[C@@H]1CC[C@@H](Nc2ncc3nnn(-c4ccc(Br)cc4)c3n2)C1` (relative stereo) [A29, trans-3-[3-(4-bromo-phenyl)-3H-[1,2,3]triazolo[4,5-d]pyrimidin-5-ylamino]cyclopentanol] reads < 1000 nM; that for `COc1ccc(-n2nnc3cnc(NC4CCN(C(=O)OC(C)(C)C)CC4)nc32)cc1` [A34, 4-[3-(4-methoxy-phenyl)-3H-[1,2,3]triazolo[4,5-d]pyrimidin-5-ylamino]-piperidine-1-carboxylic acid tert-butyl ester], < 1000 nM.
Regarding `CC(C)(O)c1ccc(-n2nnc3cnc(N[C@@H]4CC[C@@H](O)C4)nc32)cc1` (relative stereo) [A290, (trans)-3-{3-[4-(1-Hydroxy-1-methyl-ethyl)-phenyl]-3H-[1,2,3]triazolo[4,5-d]pyrimidin-5-ylamino}-cyclopentanol], the IC50 was < 1000 nM.
As to `COc1ccc(-n2nnc3cnc(N[C@@H]4CC[C@H](C(=O)N5CCN(C)CC5)C4)nc32)cc1` [A97, {(1S,3R)-3-[3-(4-methoxy-phenyl)-3H-[1,2,3]triazolo[4,5-d]pyrimidin-5-ylamino]-cyclopentyl}-(4-methyl-piperazin-1-yl)-methanone], the IC50 is < 1000 nM.
The result for `COc1ccc(-n2nnc3cnc(N[C@@H]4CCOC4)nc32)cc1` [A98, [3-(4-methoxy-phenyl)-3H-[1,2,3]triazolo[4,5-d]pyrimidin-5-yl]-(R)-tetrahydrofuran-3-yl-amine] reads < 1000 nM.
`COc1ccc(-n2nnc3cnc(NCCN4CCN(C)CC4)nc32)cc1` [A50, [3-(4-methoxy-phenyl)-3H-[1,2,3]triazolo[4,5-d]pyrimidin-5-yl]-[2-(4-methyl-piperazin-1-yl)-ethyl]-amine] had a concentration for half-maximal inhibition (IC50) of 1000 to 5000 nM.
The result for `COC(=O)[C@H]1CC[C@H](Nc2ncc3nnn(-c4ccc(OC)cc4)c3n2)C1` [A110, (1S,3S)-3-[3-(4-methoxy-phenyl)-3H-[1,2,3]triazolo[4,5-d]pyrimidin-5-ylamino]-cyclopentanecarboxylic acid methyl ester] reads < 1000 nM.
The result for `COc1ccc(-n2nnc3cnc(NC4CN(C(=O)CCN(C)C)C4)nc32)cc1` [A63, 3-dimethylamino-1-{3-[3-(4-methoxy-phenyl)-3H-[1,2,3]triazolo[4,5-d]pyrimidin-5-ylamino]-azetidin-1-yl}-propan-1-one] reads < 1000 nM.
For the compound `O=C(O)CCOc1ccc(-n2nnc3cnc(NCCCn4cc([N+](=O)[O-])cn4)nc32)cc1` [A46, 3-(4-{5-[3-(4-nitro-pyrazol-1-yl)-propylamino]-[1,2,3]triazolo[4,5-d]-pyrimidin-3-yl}-phenoxy)-propionic acid], the half-inhibitory concentration (IC50) was < 1000 nM.
As for `COc1ccc(-n2nnc3cnc(NC4CCN(C)CC4)nc32)cc1` [A18, [3-(4-methoxy-phenyl)-3H-[1,2,3]triazolo[4,5-d]pyrimidin-5-yl]-(1-methyl-piperidin-4-yl)-amine], the figure is 1000 to 5000 nM; as for `COc1ccc(-n2nnc3cnc(N[C@H]4CC[C@H](NC(=O)OC(C)(C)C)C4)nc32)cc1` (racemic) [A35, {trans-3-[3-(4-methoxy-phenyl)-3H-[1,2,3]triazolo[4,5-d]pyrimidin-5-ylamino]-cyclopentyl}-carbamic acid tert-butyl ester], 5000 to 10000 nM; as for `O=C(O)[C@H]1CC[C@@H](Nc2ncc3nnn(-c4ccc5ncccc5c4)c3n2)C1` [A188, (1S,3R)-3-(3-quinolin-6-yl-3H-[1,2,3]triazolo[4,5-d]pyrimidin-5-ylamino)-cyclopentanecarboxylic acid], < 1000 nM.
For the compound `CCNc1ncc2nnn(-c3ccc(OC)cc3)c2n1` [A16, ethyl-[3-(4-methoxy-phenyl)-3H-[1,2,3]triazolo[4,5-d]pyrimidin-5-yl]-amine], the 50% inhibitory concentration (IC50) was < 1000 nM.
As to `COc1ccc(-n2nnc3cnc(NCCCN4CCN(C)CC4)nc32)cc1` [A13, [3-(4-methoxy-phenyl)-3H-[1,2,3]triazolo[4,5-d]pyrimidin-5-yl]-[3-(4-methyl-piperazin-1-yl)-propyl]-amine], the IC50 fell in the range of 1000 to 5000 nM.
